Results: the supplement of paper PMC12592484

Assays:
Assay in all cases: drug sensitivity score (DSS2, normalised partial AUC of dose-response, 72 h CellTiter-Glo viability) (DSS (dimensionless)); higher = more sensitive (stronger growth inhibition / cytotoxicity); extreme values may be limits of the assay
CAF#1 = tested on: CAF#1 (primary prostate cancer-associated fibroblasts of myCAF-like type)
How it was run: (§1)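 Low-passage primary prostate cancer-associated fibroblasts, PF179T, WPMY-1, LNCaP and 22Rv1 cells were seeded into 384-well plates carrying pre-dispensed compounds at five doses covering a 10,000-fold range. After 72 h, viability was read by CellTiter-Glo 2.0 luminescence. Responses were scaled to vehicle and positive-control wells. The drug sensitivity score (DSS2) is a partial area under the fitted logistic dose–response curve divided by the log of its upper asymptote, computed in BREEZE; higher means more sensitive.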

CAF#7 = tested on: CAF#7 (primary prostate cancer-associated fibroblasts of myCAF-like type)
How it was run: as §1

CAF#2 = tested on: CAF#2 (primary prostate cancer-associated fibroblasts of iCAF-like type)
How it was run: as §1

PF179T = tested on: PF179T
How it was run: as §1

22Rv1 = tested on: 22Rv1
How it was run: as §1

CAF#3 = tested on: CAF#3 (primary prostate cancer-associated fibroblasts of myCAF-like type)
How it was run: as §1

CAF#4 = tested on: CAF#4 (primary prostate cancer-associated fibroblasts of iCAF-like type)
How it was run: as §1

CAF#6 = tested on: CAF#6 (primary prostate cancer-associated fibroblasts of iCAF-like type)
How it was run: as §1

WPMY-1 = tested on: WPMY-1
How it was run: as §1

CAF#5 = tested on: CAF#5 (primary prostate cancer-associated fibroblasts of myCAF-like type)
How it was run: as §1

LNCAP = tested on: LNCAP
How it was run: as §1

SMILES | drug sensitivity score (CAF#1) | drug sensitivity score (CAF#7) | drug sensitivity score (CAF#2) | drug sensitivity score (PF179T) | drug sensitivity score (22Rv1) | drug sensitivity score (CAF#3) | drug sensitivity score (CAF#4) | drug sensitivity score (CAF#6) | drug sensitivity score (WPMY-1) | drug sensitivity score (CAF#5) | drug sensitivity score (LNCAP)
CC[C@@H]1C(=O)OC[C@@H]1Cc1cncn1C [Pilocarpine] (tested concentration range 4-40000 nM) | 0.8 | 0 | 0 | 0 | 0 | 0 | 0 | 0 | 0 | 1.5 | 0
CCCCc1nc2cc(/C=C/C(=O)NO)ccc2n1CCN(CC)CC [Pracinostat] (tested concentration range 1-10000 nM) | 10.7 | 8.4 | 13.7 | 9.9 | 20 | 9 | 10.6 | 9.2 | 20 | 10.3 | 20.3
Cc1ccccc1CN1C(=O)C2=C(CCN(Cc3ccccc3)C2)N2CCN=C12 [ONC201] (tested concentration range 2.5-25000 nM) | 3.6 | 3.8 | 6.2 | 3.1 | 13.9 | 2.3 | 3.4 | 4.1 | 6.9 | 3.1 | 9.3
Cc1ccc(C(=O)N(CCCN)[C@@H](c2oc3cc(Cl)ccc3c(=O)c2Cc2ccccc2)C(C)C)cc1 (tested concentration range 0-100 nM) | 1.6 | 1.3 | 7.1 | 2.9 | 3.6 | 0.4 | 2.5 | 1.6 | 4 | 4.3 | 19.3
CC(C)C[C@@H](C(=O)N[C@H](C(=O)OC1CCCC1)c1ccccc1)[C@H](O)C(=O)NO [Tosedostat] (tested concentration range 1-10000 nM) | 0 | 5.1 | 0.6 | 1.2 | 4.4 | 1 | 0 | 2.7 | 9.3 | 3.5 | 8.6
Cc1cccc(-c2[nH]c(CNc3ccccc3F)nc2-c2ccc3ncnn3c2)n1 [TEW-7197] (tested concentration range 0.2-2500 nM) | 0.5 | 0 | 0 | 0 | 0 | 0.5 | 0 | 0 | 0 | 0.3 | 0
Cc1cc2c(F)c(Oc3ncnn4cc(OC[C@@H](C)O)c(C)c34)ccc2[nH]1 [Brivanib] (tested concentration range 0.1-1000 nM) | 0 | 0 | 0 | 0 | 0 | 0 | 0 | 0 | 0 | 0 | 1.2
CC1(C)CCC(c2ccc(Cl)cc2)=C(CN2CCN(c3ccc(C(=O)NS(=O)(=O)c4ccc(N[C@H](CCN5CCOCC5)CSc5ccccc5)c(S(=O)(=O)C(F)(F)F)c4)cc3)CC2)C1 [Navitoclax] (tested concentration range 1-10000 nM) | 3 | 0.7 | 0 | 0 | 0 | 0 | 7.5 | 3.1 | 0.6 | 2.3 | 7.5
COCCNCc1ccc(-c2cc3nccc(Oc4ccc(NC(=S)NC(=O)Cc5ccc(F)cc5)cc4F)c3s2)nc1 [Glesatinib] (tested concentration range 0.2-2500 nM) | 5.6 | 4.2 | 5.1 | 3.4 | 1.4 | 4.4 | 5.7 | 3.4 | 2.5 | 4.3 | 1.3
CN(C)C1CCN(C(=O)c2ccc(NC(=O)Nc3ccc(-c4nc(N5CCOCC5)nc(N5CCOCC5)n4)cc3)cc2)CC1 [Gedatolisib] (tested concentration range 0.1-1000 nM) | 5.9 | 13.1 | 5.1 | 8.1 | 22.5 | 8.9 | 5.6 | 10.9 | 14.8 | 9.8 | 19.8
COc1cc2/c(=N/c3ccc(Br)cc3F)nc[nH]c2cc1OCC1CCN(C)CC1 [Vandetanib] (tested concentration range 0.1-1000 nM) | 5.1 | 0.2 | 6.4 | 0 | 0 | 2.4 | 4.6 | 0.1 | 0.4 | 4.4 | 0
O=c1[nH]c(=O)n([C@H]2C[C@H](O)[C@@H](CO)O2)cc1C(F)(F)F [Trifluridine] (tested concentration range 1-10000 nM) | 0 | 0 | 1 | 0.1 | 5 | 0 | 0 | 0 | 4.7 | 0 | 4
CN[C@@H](C)C(=O)N[C@H]1CN(C(=O)CC(C)C)CC[C@H]2CC[C@@H](C(=O)NC(c3ccccc3)c3ccccc3)N2C1=O [AT-406] (tested concentration range 1-10000 nM) | 0 | 0 | 0 | 0 | 0 | 0 | 0 | 1.6 | 0 | 0 | 0
CO[C@H]1C[C@@H]2CC[C@@H](C)[C@@](O)(O2)C(=O)C(=O)N2CCCC[C@H]2C(=O)O[C@H]([C@H](C)C[C@@H]2CC[C@@H](OC(=O)C(C)(CO)CO)[C@H](OC)C2)CC(=O)[C@H](C)/C=C(\C)[C@@H](O)[C@@H](OC)C(=O)[C@H](C)C[C@H](C)/C=C/C=C/C=C/1C [Temsirolimus] (tested concentration range 0-100 nM) | 10.6 | 6 | 10.1 | 9.8 | 16.7 | 4 | 9.9 | 5.5 | 6.6 | 11.8 | 11
CC(C)n1nc(-c2ccc3oc(N)nc3c2)c2c(N)ncnc21 [Sapanisertib] (tested concentration range 0.1-1000 nM) | 20.2 | 13.2 | 14 | 18 | 21.2 | 14.3 | 17.8 | 14.6 | 13.7 | 19.1 | 20
CCc1c2c(nc3ccc(O)cc13)-c1cc3c(c(=O)n1C2)COC(=O)[C@]3(O)CC [SN-38] (tested concentration range 1-10000 nM) | 20.3 | 11.8 | 25.5 | 19.7 | 39.3 | 7.1 | 20.3 | 8.7 | 35 | 14.3 | 34.8
Cc1c(N)nc([C@H](CC(N)=O)NC[C@H](N)C(N)=O)nc1C(=O)N[C@H](C(=O)N[C@H](C)[C@@H](O)[C@H](C)C(=O)N[C@H](C(=O)NCCc1nc(-c2nc(C(=O)NCCC[S+](C)C)cs2)cs1)[C@@H](C)O)[C@@H](OC1OC(CO)C(O)C(O)C1OC1OC(CO)C(O)C(OC(N)=O)C1O)c1cnc[nH]1 (some centres undefined) [Bleomycin] (tested concentration range 1-10000 nM) | 0.6 | 9.7 | 3.9 | 3.3 | 3.7 | 5.7 | 5.7 | 7.7 | 0.4 | 3.2 | 7.5
CNCc1ccc(-c2[nH]c3cc(F)cc4c3c2CCNC4=O)cc1 [Rucaparib] (tested concentration range 1-10000 nM) | 0.8 | 2.9 | 2.3 | 3.7 | 4.6 | 0 | 3.8 | 0.5 | 1.8 | 0 | 4.8
CCC1=C[C@@H]2CN(C1)Cc1c([nH]c3ccccc13)[C@@](C(=O)OC)(c1cc3c(cc1OC)N(C)[C@H]1[C@@](O)(C(=O)OC)[C@H](OC(C)=O)[C@]4(CC)C=CCN5CC[C@]31[C@@H]54)C2 [Vinorelbine] (tested concentration range 1-10000 nM) | 17.3 | 26 | 20.1 | 19.7 | 31.3 | 15.3 | 12.6 | 19.6 | 36.9 | 18.1 | 42
Cc1nc(Nc2ncc(C(=O)Nc3c(C)cccc3Cl)s2)cc(N2CCN(CCO)CC2)n1 [Dasatinib] (tested concentration range 0.1-1000 nM) | 13.8 | 15.3 | 15.5 | 11.7 | 0 | 13.7 | 10.3 | 13 | 5.3 | 15.2 | 5
CCCC(CCC)C(=O)O [Valproic acid] (tested concentration range 100-1000000 nM) | 0 | 0 | 0 | 0 | 0 | 1.2 | 0 | 0 | 0 | 0 | 0
CC[C@H](C)C(=O)O[C@H]1C[C@H](O)C=C2C=C[C@H](C)[C@H](CC[C@@H](O)C[C@@H](O)CC(=O)O)[C@H]21 [Pravastatin] (tested concentration range 1-10000 nM) | 0 | 0 | 0.3 | 0 | 0 | 0 | 0 | 0 | 0 | 0 | 0
O=C(Nc1cnn2ccc(N3CCC[C@@H]3c3cc(F)ccc3F)nc12)N1CC[C@H](O)C1 [Larotrectinib] (tested concentration range 0.1-1000 nM) | 0 | 0 | 0 | 0 | 0 | 0 | 0 | 0 | 0 | 0 | 0
O=C(c1cc(Cc2n[nH]c(=O)c3ccccc23)ccc1F)N1CCN(C(=O)C2CC2)CC1 [Olaparib] (tested concentration range 1-10000 nM) | 3.8 | 4.1 | 4.7 | 6.4 | 5.8 | 3 | 6.8 | 3.5 | 4.5 | 4.5 | 4.4
